Data reported in patent US6835819B2, “Sequences and their use” (Metcon Medicin AB, priority 2000, dated 2004).

How the values were obtained:
Type in all cases: cell-based, mouse
IRS-2 mRNA = IRS-2 mRNA expression (Northern blots) in differentiated 3T3-L1 adipocytes; conditions: for effect on IRS-2 gene expression: FIG. 2: 10 μM darglitazone with 100 nM insulin, 10 μM WY14643 with or without insulin, 100 nM progesterone, 200 μM 8-BrcAMP
Protocol: (§1) 3T3-L1 fibroblasts were grown and differentiated into adipocytes according to Rubin et al., 1977). At least 90% of the cells had acquired the adipocyte phenotype 6 days after initiating differentiation. Eight days after differentiation, the medium was changed and the various agents added for the times indicated in the Results.
(§2) Total cellular RNA was isolated from cells with guanidinium thiocyanate, as described (Chirgwin et al. 1979). Northern blot analyses were performed on total cellular RNA (30 μg) with labeled cDNA probes made against β-actin as housekeeping gene, mouse IRS-1 (bp 1333-2335) and mouse IRS-2 (bp 2987-3325) (kindly provided by Drs. J. Pierce and L-M Wang, NCI, NIH), rodent GLUT4 (bp 121-2128, Accession Nr NM 001042, kindly provided by Dr. Sam W. Cushman, NIDDK, NIH) and PKB/Akt using a PCR fragment against PKBβ (bp 282-1130, Accession Nr M95936) in a common sequence for PKBα, PKBβ and PKBγ. 5′ sequence […] and 3′ sequence […] were used as PCR primers (SEQ. ID. NO. 13 and 14, respectively).

PKB/Akt mRNA = PKB/Akt mRNA expression (Northern blots) in differentiated 3T3-L1 adipocytes; conditions: 48 hrs; insulin alone or combined with PPARγ ligand; same experiments as IRS-2
Protocol: as §1, §2

IRS-1 mRNA = IRS-1 mRNA expression (Northern blots) in differentiated 3T3-L1 adipocytes; conditions: 48 hrs; insulin alone or combined with PPARγ ligand; same experiments as IRS-2
Protocol: as §1, §2

IRS-2 protein = IRS-2 protein expression (immunoblot) in differentiated 3T3-L1 cells
Protocol: (§3) 3T3-L1 fibroblasts were grown and differentiated into adipocytes according to Rubin et al., 1977). At least 90% of the cells had acquired the adipocyte phenotype 6 days after initiating differentiation. Eight days after differentiation, the medium was changed and the various agents added for the times indicated in the Results. Cell lysates were prepared as described by Rondinone et al. 1997. Equal amounts of protein were separated by SDS/PAGE, transferred and immunoblotted with appropriate antibodies against the specific proteins. Phosphotyrosines were immunoblotted with antibody PY99 (Transduction Laboratories, Lexington, N.Y.), GLUT4 with an antibody kindly provided by Dr. Sam W. Cushman (NIDDK, NIH), IRS-1 and IRS-2 with antibodies from Upstate Biotechnology, Inc. (Lake Placid, N.Y.) and PKB/Akt with antibodies from Biolab (Boston, Mass.). Immunoprecipitations were performed as described (Rondinone et at., 1997) and individual proteins were detected by blotting with horseradish peroxidase-linked secondary antibodies and using enhanced chemiluminescence (Nycomed Amersham plc., UK).

IRS-1 protein = IRS-1 protein expression (immunoblot) in differentiated 3T3-L1 cells
Protocol: as §3

PKB/Akt protein = PKB/Akt protein expression in differentiated 3T3-L1 cells; conditions: pioglitazone and/or insulin for 48 hrs
Protocol: as §3

PKB/Akt phosphorylation = test: Acute insulin-stimulated PKB/Akt phosphorylation (immunoblot) in pre-cultured 3T3-L1 adipocytes; conditions: cells cultured with agent alone for 48 hrs, serum-starved 3 hrs, then 100 nM insulin 10 min
Protocol: Lysates were prepared from cells that had been cultured for 48 hrs as in FIG. 3A, serum-starved for 3 hrs, and then stimulated with 100 nM insulin for 10 min. Following separation on 7.5% SDS-PAGE, the proteins were immunoblotted with antibodies recognizing insulin-stimulated phosphoserine (PS-PKB) and phosphothreonine (PThr-PKB) PKB/Akt.
To study the acute effect of insulin, the cells were serum-deprived for 3 hrs before adding 100 nM insulin for 15 min.
The present inventor also examined the acute effect of insulin on down-stream activation of PKB/Akt in cells that had been cultured with pioglitazone for 48 hrs, washed and serum-starved for 3 hrs in fresh medium. […] Insulin (100 nM) was then added for 10 min to the serum-starved cells.

Compound: Nc1ncnc2c1nc(Br)n2[C@@H]1O[C@@H]2COP(=O)(O)O[C@H]2[C@H]1O [8-BrcAMP]
- effect on IRS-2 gene expression (IRS-2 mRNA; 48 hrs): no effects were seen

Compound: Cc1cccc(Nc2cc(Cl)nc(SCC(=O)O)n2)c1C [WY14643]
- gene expression of PKB/Akt (PKB/Akt mRNA): no effect was seen
- average increase of IRS-2 mRNA expression (IRS-2 mRNA; 10 μM, n=2, also when insulin was added (FIG. 2 middle)): 9%
- effect on IRS-2 gene expression (IRS-2 mRNA; 48 hrs): completely without effect
- gene expression of IRS-1 (IRS-1 mRNA): no effect was seen

Compound: Cc1oc(-c2ccccc2)nc1CCC(=O)c1ccc(CC2SC(=O)NC2=O)cc1 (stereo not drawn) [darglitazone]
- gene expression of PKB/Akt (PKB/Akt mRNA): Neither insulin alone nor when combined with the PPARγ ligands, pioglitazone or darglitazone (not shown), altered
- gene expression of IRS-1 (IRS-1 mRNA): Neither insulin alone nor when combined with the PPARγ ligands, pioglitazone or darglitazone (not shown), altered

Compound: CCc1ccc(CCOc2ccc(CC3SC(=O)NC3=O)cc2)nc1 (stereo not drawn) [pioglitazone]
- average increase of IRS-2 mRNA expression (IRS-2 mRNA; 1 μM, n=2): 230%
- increase of IRS-2 mRNA (IRS-2 mRNA; 10 μM pioglitazone in combination with 100 nM insulin, 48 hrs (FIG. 1A top)): ~4 fold
- average increase of IRS-2 mRNA expression (IRS-2 mRNA; 10 μM, same experiments as 1 μM, n=2): 292%
- increase of IRS-2 mRNA levels relative to β-actin mRNA (IRS-2 mRNA; after 48 hrs, 5 experiments (FIG. 1B top)): 3-5 fold
- average increase of IRS-2 protein expression (IRS-2 protein; after 48 hrs): 36%
- change of IRS-1 protein expression (IRS-1 protein; insulin and pioglitazone combined, three experiments, range 18-39%): −31%
- change of IRS-1 protein expression (IRS-1 protein; pioglitazone alone, three experiments): +7%

Compound: CC(=O)[C@H]1CC[C@H]2[C@@H]3CCC4=CC(=O)CC[C@]4(C)[C@H]3CC[C@]12C [progesterone]
- effect on IRS-2 gene expression (IRS-2 mRNA; 48 hrs): no effects were seen

Compound: insulin
- gene expression of PKB/Akt (PKB/Akt mRNA): Neither insulin alone nor when combined with the PPARγ ligands, pioglitazone or darglitazone (not shown), altered
- further increase of IRS-2 mRNA by addition of insulin to pioglitazone (IRS-2 mRNA; 100 nM insulin added to 10 μM pioglitazone, 48 hrs (FIG. 1A bottom)): no further increase
- IRS-2 gene expression (IRS-2 mRNA; insulin alone (100 nM), 48 hrs): did not change
- PKB/Akt protein expression (PKB/Akt protein): not changed
- acute effect of insulin on PKB/Akt phosphorylation (PKB/Akt phosphorylation): markedly reduced
- IRS-2 protein expression (IRS-2 protein; 48 hrs, 10 μM pioglitazone or 100 nM insulin (FIG. 1B bottom)): not changed
- gene expression of IRS-1 (IRS-1 mRNA): Neither insulin alone nor when combined with the PPARγ ligands, pioglitazone or darglitazone (not shown), altered
- decrease of IRS-1 protein expression (IRS-1 protein; insulin alone, three experiments, range 25-39%): 33%
- IRS-1 protein expression (IRS-1 protein; pioglitazone alone or insulin alone, chronic (FIG. 3B bottom)): reduced
